From paper PMC2834293 (Journal of medicinal chemistry, 2010)

Tests used:
furin = conditions: read-out: Ki furin; cited from earlier work
[1] = target: recombinant soluble human furin (Homo sapiens, UniProt P09958); assay: Enzyme kinetics with furin; type: biochemical
[2] = test system: fowl plague virus hemagglutinin cleavage in MDCK cells; type: cell-based, influenza virus A/FPV/Rostock/34 (H7N1); conditions: FPV-infected MDCK cells; data not shown
[3] = Stability of stock solution in water; type: physicochemical; conditions: room temperature, two weeks
[4] = test system: fowl plague virus (FPV, Rostock strain); conditions: 25 μM inhibitor, up to 72 h

Sequence of recombinant soluble human furin (P09958 108-715 limits assumed): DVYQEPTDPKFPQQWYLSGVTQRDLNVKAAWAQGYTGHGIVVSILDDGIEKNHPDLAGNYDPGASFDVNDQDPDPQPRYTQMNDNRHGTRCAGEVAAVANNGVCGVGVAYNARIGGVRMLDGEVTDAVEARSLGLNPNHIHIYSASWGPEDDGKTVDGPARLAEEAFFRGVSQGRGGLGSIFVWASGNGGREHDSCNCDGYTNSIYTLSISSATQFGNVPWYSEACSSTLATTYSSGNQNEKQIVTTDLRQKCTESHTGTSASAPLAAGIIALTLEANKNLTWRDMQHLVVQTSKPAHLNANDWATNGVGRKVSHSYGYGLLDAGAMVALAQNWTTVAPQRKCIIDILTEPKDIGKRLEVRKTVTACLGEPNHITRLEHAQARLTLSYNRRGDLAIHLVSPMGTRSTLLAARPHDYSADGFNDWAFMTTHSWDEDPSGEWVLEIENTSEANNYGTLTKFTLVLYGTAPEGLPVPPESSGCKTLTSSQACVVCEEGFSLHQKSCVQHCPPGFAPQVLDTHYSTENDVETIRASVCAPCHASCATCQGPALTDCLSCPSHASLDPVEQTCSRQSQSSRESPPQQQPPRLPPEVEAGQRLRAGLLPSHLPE

Compound	Ki [1]	activity in the cellular HA cleavage assay compared with inhibitor 15 [2]	other results
nona-D-arginine			Ki (furin): 0.0013 µM
N=C(N)c1ccc(CN)cc1 [compound 1, 4-amidinobenzylamine]	1200 µM		
CCCCCCCCCC(=O)N[C@@H](CCCNC(=N)N)C(=O)N[C@H](C(=O)N[C@@H](CCCNC(=N)N)C(=O)NCc1ccc(C(=N)N)cc1)C(C)C [compound 16]		Very similar results	
CC(C)[C@H](NC(=O)[C@H](CCCNC(=N)N)NC(=O)Cc1ccccc1)C(=O)N[C@@H](CCCNC(=N)N)C(=O)NCc1ccc(C(=N)N)cc1 [compound 15, Phac-Arg-Val-Arg-4-(amidomethyl)benzamidine]			change in HPLC elution profile on storage [3]: could not detect any change; viability of the cells in the presence of inhibitor ([4]; MDCK cells): not noticeably influenced; delay of virus release versus untreated infected cultures ([4]; MOI 10^-5, MDCK cells): about 24 h
CC(=O)N[C@@H](CCCNC(=N)N)C(=O)N[C@H](C(=O)N[C@@H](CCCNC(=N)N)C(=O)NCc1ccc(C(=N)N)cc1)C(C)C [compound 17]		reduced activity	
N=C(N)c1ccccc1 [benzamidine, reference compound]	750 µM		
